Source: patent US4784958A, “1,4-dihydropyridine derivatives and 1,4-dihydroquinoline derivatives radioactively labelled with ^125 I, their preparation, and their use in testing medicaments” (priority 1983, dated 1988)
Read-outs that look alike come from different tables or passages of the source.

What was measured:
[1] = biological target: T1, guinea-pig skeletal muscle membranes (1,4-dihydropyridine receptors / calcium channel) (Cavia porcellus, UniProt A0A286X7I0); experiment: Competition radioreceptor assay with the ^125 I-labelled 1,4-dihydropyridine of Example 2; format: binding
T1 construct: membrane fractions from guinea-pig brain, cardiac muscle and skeletal muscle; from tissue; host or cells: guinea-pig skeletal muscle membranes
T1 sequence (A0A286X7I0 1-1867): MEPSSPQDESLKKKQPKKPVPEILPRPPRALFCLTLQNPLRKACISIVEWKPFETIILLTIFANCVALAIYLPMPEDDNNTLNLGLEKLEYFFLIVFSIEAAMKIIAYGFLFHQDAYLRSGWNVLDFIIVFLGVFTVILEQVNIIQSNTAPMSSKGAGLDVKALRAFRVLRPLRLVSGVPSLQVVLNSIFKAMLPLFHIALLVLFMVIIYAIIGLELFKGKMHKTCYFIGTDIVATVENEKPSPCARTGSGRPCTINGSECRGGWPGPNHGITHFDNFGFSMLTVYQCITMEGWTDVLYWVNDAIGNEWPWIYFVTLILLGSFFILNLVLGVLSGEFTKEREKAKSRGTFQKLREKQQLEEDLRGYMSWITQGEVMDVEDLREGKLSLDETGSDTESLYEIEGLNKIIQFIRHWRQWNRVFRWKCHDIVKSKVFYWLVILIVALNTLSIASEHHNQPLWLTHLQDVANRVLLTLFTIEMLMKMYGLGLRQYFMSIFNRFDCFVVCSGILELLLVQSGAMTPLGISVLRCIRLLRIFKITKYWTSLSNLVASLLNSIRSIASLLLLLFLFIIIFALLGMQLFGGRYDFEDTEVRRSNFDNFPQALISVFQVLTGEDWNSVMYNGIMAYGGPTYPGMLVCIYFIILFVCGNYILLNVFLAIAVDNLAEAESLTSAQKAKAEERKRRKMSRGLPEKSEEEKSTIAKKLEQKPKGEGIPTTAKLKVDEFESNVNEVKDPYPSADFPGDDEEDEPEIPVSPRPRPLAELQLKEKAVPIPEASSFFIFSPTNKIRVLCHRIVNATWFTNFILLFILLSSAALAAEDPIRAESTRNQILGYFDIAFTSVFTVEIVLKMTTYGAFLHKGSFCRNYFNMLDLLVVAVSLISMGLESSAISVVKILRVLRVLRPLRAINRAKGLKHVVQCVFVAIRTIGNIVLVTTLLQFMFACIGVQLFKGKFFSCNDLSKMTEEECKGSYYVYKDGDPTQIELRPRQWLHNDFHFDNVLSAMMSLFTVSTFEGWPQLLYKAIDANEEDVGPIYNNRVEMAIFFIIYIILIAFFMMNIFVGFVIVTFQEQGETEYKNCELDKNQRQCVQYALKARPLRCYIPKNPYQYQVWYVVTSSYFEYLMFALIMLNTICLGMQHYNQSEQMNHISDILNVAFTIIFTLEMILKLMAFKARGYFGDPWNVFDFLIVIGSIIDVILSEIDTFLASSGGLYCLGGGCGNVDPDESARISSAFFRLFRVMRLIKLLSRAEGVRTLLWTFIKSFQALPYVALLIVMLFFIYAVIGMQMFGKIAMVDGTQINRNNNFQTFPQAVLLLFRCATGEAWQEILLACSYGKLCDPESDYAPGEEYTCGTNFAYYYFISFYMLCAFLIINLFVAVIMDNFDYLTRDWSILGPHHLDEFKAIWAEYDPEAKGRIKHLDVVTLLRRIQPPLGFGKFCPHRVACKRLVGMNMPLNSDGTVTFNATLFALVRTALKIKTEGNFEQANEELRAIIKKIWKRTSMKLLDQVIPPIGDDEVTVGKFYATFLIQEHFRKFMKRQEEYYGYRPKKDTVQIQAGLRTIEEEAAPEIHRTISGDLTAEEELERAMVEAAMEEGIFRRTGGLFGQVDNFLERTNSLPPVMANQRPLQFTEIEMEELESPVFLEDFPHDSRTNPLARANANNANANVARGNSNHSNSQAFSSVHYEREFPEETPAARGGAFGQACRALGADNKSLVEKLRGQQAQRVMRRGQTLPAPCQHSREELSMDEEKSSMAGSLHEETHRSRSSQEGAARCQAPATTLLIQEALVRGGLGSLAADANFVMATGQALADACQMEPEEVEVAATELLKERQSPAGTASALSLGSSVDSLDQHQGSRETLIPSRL
Experimental: In order to separate the free ligand from the bound ligand, 10% (w/v) polyethylene glycol 6000 was added to ice-cold 10 mM TRIS HCl buffer, pH 7.4, followed by 20 mM MgCl2 (3.5 ml), the sample was diluted, suction filtered in vacuo over a glass fibre filter, and the glass fibre filter was rewashed twice with 3.5 ml of the same buffer. The particle-bound radioactivity retained on the filters was then measured.
The data in Table 1 are mean values (±asymptotic standard deviation) from 3 independent experiments in which various calcium antagonists and derivatives or precursors of calcium antagonists were used as competitors with the ^125 I-labelled 1,4-dihydropyridine ("ligand") obtained in Example 2. Guinea-pig skeletal muscle membranes were used as receptor material. The concentration of the labelled ligand was 20-30 pmole/l and the experimental temperature was 25° C. 6 to 9 different concentrations of the checked substances were used (in each case as duplicate) and the measured binding data were optimally adapted by means of a computer program (DeLean A., Munson P. J., Rodbard D. (1978). Simultaneous analysis of families of sigmoid curves: application to bioassay, radioligand assay and physiological dose-response curves. Am J. Physiol. 4 E97-102). The stereospecifity of the binding for chiral 1,4-dihydropyridines was investigated as an important criterion for the receptor binding of the ^125 I-labelled 1,4-dihydropyridine in group 1. […] The EC50 value is the concentration of the substance stimulating a semi-maximum specific binding of the ligand.

[2] = biological target: T2, 1,4-dihydropyridine receptors in guinea-pig brain membranes (Cavia porcellus, UniProt O35505); experiment: Saturation analysis, binding of ^125 I-labelled 1,4-dihydropyridine to brain membranes; details: 25° C., read-out: dissociation constant (conclusion)
T2 construct: 1,4-dihydropyridine receptors in guinea-pig brain membranes; from tissue; host or cells: guinea-pig brain membranes
T2 sequence (O35505 whole entry): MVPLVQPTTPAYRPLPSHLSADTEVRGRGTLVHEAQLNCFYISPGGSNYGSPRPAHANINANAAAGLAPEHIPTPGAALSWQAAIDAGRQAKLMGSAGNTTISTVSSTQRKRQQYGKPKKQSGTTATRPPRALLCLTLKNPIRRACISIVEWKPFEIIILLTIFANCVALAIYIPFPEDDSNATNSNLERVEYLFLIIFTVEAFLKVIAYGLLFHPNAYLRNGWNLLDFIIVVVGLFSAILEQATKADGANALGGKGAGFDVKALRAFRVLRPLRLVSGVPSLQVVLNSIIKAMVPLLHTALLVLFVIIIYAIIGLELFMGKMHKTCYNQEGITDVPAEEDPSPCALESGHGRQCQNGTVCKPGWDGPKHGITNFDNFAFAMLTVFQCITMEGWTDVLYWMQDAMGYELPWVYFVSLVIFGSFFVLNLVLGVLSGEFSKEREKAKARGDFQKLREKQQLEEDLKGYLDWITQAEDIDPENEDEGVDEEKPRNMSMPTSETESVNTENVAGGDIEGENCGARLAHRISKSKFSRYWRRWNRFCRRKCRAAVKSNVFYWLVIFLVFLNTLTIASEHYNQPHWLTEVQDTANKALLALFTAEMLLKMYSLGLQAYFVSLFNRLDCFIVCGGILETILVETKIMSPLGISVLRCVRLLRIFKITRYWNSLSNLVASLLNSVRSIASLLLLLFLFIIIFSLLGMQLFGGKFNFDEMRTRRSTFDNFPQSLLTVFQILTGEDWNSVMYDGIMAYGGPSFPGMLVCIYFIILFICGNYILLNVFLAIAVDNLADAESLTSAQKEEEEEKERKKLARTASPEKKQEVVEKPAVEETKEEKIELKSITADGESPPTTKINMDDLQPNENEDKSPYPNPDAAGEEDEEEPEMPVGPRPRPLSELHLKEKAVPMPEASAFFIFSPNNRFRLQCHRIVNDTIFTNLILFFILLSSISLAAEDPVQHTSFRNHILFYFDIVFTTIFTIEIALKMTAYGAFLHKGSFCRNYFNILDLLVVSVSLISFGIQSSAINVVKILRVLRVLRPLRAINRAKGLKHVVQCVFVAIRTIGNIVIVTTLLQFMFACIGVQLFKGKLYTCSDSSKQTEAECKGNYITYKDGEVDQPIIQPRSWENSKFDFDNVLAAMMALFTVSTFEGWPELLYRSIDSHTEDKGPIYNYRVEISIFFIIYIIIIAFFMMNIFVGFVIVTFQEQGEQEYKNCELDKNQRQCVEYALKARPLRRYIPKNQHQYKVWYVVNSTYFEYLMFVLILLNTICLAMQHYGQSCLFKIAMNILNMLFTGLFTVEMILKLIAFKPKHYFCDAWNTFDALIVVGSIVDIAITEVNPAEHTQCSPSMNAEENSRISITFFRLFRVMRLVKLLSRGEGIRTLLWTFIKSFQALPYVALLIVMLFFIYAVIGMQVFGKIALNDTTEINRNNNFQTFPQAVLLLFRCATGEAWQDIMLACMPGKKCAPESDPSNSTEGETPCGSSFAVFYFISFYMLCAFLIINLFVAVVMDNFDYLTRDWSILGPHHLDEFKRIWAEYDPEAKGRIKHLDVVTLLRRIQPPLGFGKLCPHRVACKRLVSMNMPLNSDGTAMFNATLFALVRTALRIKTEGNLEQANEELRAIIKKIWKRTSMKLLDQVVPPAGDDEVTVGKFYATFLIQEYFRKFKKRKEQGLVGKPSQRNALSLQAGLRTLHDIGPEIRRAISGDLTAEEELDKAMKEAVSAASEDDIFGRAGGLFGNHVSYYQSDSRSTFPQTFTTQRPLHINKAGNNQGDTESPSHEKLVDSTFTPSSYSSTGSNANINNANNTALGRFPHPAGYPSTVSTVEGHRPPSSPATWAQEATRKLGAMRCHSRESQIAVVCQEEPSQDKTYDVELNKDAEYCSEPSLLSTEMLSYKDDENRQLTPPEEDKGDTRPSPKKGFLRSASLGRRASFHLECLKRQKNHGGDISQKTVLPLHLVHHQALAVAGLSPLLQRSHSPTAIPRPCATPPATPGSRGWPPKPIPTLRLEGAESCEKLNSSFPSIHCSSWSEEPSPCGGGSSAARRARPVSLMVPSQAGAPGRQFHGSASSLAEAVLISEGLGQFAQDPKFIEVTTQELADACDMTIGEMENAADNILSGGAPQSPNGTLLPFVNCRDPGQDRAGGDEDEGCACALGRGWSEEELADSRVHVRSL
Experimental: (§1) Aliquots of the obtained and ^125 I-labelled 1,4-dihydropyridine are dried in a stream of nitrogen, incubated with buffer (50 mM TRIS-HCl, pH 7.4, to which the protease inhibitor phenylmethylsulphonyl fluoride has been added (0.1 mmole/l)) and membrane fractions from guinea-pig brain, cardiac muscle and skeletal muscle (prepared as described in Drug Development 9: 63-98 (1983); Naunyn-Schmiedeberg's Arch. Pharmacol. 321: 80-83 (1983) and FEBS Lett 148: 331-337 (1982)) at 25° C. in 0.1 ml volume until equilibrium is reached, and the specific binding (defined as the difference in the binding of the ^125 I-labelled 1,4-dihydropyridine in the absence and presence of 1 μmole/l of Nimodipin) is measured by means of the filtration technique (to separate bound and free ^125 I-labelled 1,4-dihydropyridine). […] The particle-bound radioactivity retained on the filters was then measured.
(§2) The following formula was used to calculate the concentration of the free ligand: (T. a)-B, where T is the total concentration of the ligand, a is a factor describing the binding capacity of the ligand, and B is the concentration of the specifically bound ligand in equilibrium. The factor a was determined experimentally by saturating the radioactive ligand with binding sites (receptors) (described in FEBS Lett. 148, 331-337, 1982; Naunyn Schmiedeberg's Arch. Pharmacol 321, 7-10, 1982). […]

[3] = Stability of the ^125 I-labelled 1,4-dihydropyridine (HPLC, thin layer chromatography); format: physicochemical
Experimental: The following formula was used to calculate the concentration of the free ligand: (T. a)-B, where T is the total concentration of the ligand, a is a factor describing the binding capacity of the ligand, and B is the concentration of the specifically bound ligand in equilibrium. The factor a was determined experimentally by saturating the radioactive ligand with binding sites (receptors) (described in FEBS Lett. 148, 331-337, 1982; Naunyn Schmiedeberg's Arch. Pharmacol 321, 7-10, 1982). The factor "a" was 0.5 for the asymmetric 1,4-dihydropyridine derivative, in agreement with the theoretically required capacity of the receptor (R) and (S) to differentiate enantiomers of the ^125 I-labelled 1,4-dihydropyridine (stereospecifity of the binding). The ^125 I-labelled 1,4-dihydropyridine is the racemic mixture of (R) and (S) enantiomers. A dissociation constant of 350 pmole/l (25° C.) was found for muscle membranes (not illustrated). The stability of the ^125 I-labelled 1,4-dihydropyridine was checked under the following conditions by conventional methods (HPLC, thin layeer chromatography): buffer 50 mM TRIS HCl, pH 7.4, 25° C., 4 hours; muscle membrane in buffer, 25° C., 4 hours; as well as storage in benzene or absolute ethanol at -20° C. for up to 21 days after preparation of the ligand. In no case were the radiochemical impurities greater than 10%.

[4] = biological target: T3, skeletal muscle membranes (1,4-dihydropyridine receptors) (Cavia porcellus, UniProt A0A286X7I0); experiment: Saturation analysis, binding of ^125 I-labelled 1,4-dihydropyridine to skeletal muscle membranes; parameters: species or system guinea-pig; details: 25° C.
T3 construct: membrane fractions from guinea-pig brain, cardiac muscle and skeletal muscle; from tissue; host or cells: guinea-pig skeletal muscle membranes
T3 sequence (A0A286X7I0 1-1867): as the sequence (A0A286X7I0 1-1867) above
Experimental: as §1, §2

[5] = read-out: IC50 (50% inhibition of the specific binding of the ligand in the radioreceptor assay), guinea-pig skeletal muscle membranes, ligand 20-30 pmole/l, 25° C., mean ± asymptotic standard deviation, 3 independent experiments
[6] = guinea-pig skeletal muscle membranes, ligand 20-30 pmole/l, 25° C., mean ± asymptotic standard deviation, 3 independent experiments

| Compound | IC50 [1, 6] [nM] | other results |
| --- | --- | --- |
| 1,4-dihydro-2,6-dimethyl-4-(2-trifluoromethylphenyl)-3,5-pyridinecarboxylic acid 2-(aminoethyl)ethyl ester [Bay K 8644] | – | IC50 [1, 5]: 37 ± 5 nM |
| COC(=O)C1=C(C)NC(C)=C(C(=O)OC(C)C)C1c1cccc2nonc12 (single isomer, unassigned; (+)) [(+)205-033, isopropyl 4-(2,1,3-benzoxadiazole-4-yl)-1,4-dihydro-2,6-dimethyl-5-methoxycarbonylpyridine-3-carboxylate] | 2 ± 0.05 | – |
| COC(=O)C1=C(C)NC(C)=C(C(=O)OC(C)C)C1c1cccc([N+](=O)[O-])c1 (single isomer, unassigned; (+)) [(+)Bay e 6927, isopropylmethyl 1,4-dihydro-2,6-dimethyl-4-(3-nitrophenyl)-3,5-pyridinedicarboxylate] | 420 ± 67 | – |
| COc1ccc(CCN(C)CCCC(C#N)(c2cc(OC)c(OC)c(OC)c2)C(C)C)cc1OC (single isomer, unassigned; (+)) [(+)Methoxyverapamil, Methoxyverapamil] | 190 ± 50 | – |
| COC(=O)C1=C(C)NC(C)=C(C(=O)OCCN(C)Cc2ccccc2)C1c1cccc([N+](=O)[O-])c1 (single isomer, unassigned; (+)) [(+)Nicardipine, 2,6-dimethyl-4-(3 nitrophenyl)-1,4-dihydropyridine-3,5-dicarboxylic acid 3-2(N-benzyl-N-methylamino)-ethylester-5-methylester] | 7 ± 0.8 | – |
| COC(=O)C1=C(C)NC(C)=C(C(=O)OC(C)C)C1c1cccc2nonc12 (single isomer, unassigned; (-)) [(-)205-034, isopropyl 4-(2,1,3-benzoxadiazole-4-yl)-1,4-dihydro-2,6-dimethyl-5-methoxycarbonylpyridine-3-carboxylate] | 198 ± 40 | – |
| COC(=O)C1=C(C)NC(C)=C(C(=O)OC(C)C)C1c1cccc([N+](=O)[O-])c1 (single isomer, unassigned; (-)) [(-)Bay e 6927, isopropylmethyl 1,4-dihydro-2,6-dimethyl-4-(3-nitrophenyl)-3,5-pyridinedicarboxylate] | 3 ± 0.04 | – |
| COC(=O)C1=C(C)NC(C)=C(C(=O)OCCN(C)Cc2ccccc2)C1c1cccc([N+](=O)[O-])c1 (single isomer, unassigned; (-)) [(-)Nicardipine, 2,6-dimethyl-4-(3 nitrophenyl)-1,4-dihydropyridine-3,5-dicarboxylic acid 3-2(N-benzyl-N-methylamino)-ethylester 5-methylester] | 42 ± 3 | – |
| COc1ccc(CCN(C)CCC[C@@](C#N)(c2cc(OC)c(OC)c(OC)c2)C(C)C)cc1OC [(-)Methoxyverapamil, Methoxyverapamil] | 21 ± 8 | – |
| CCOC(=O)C1=C(C)NC(C)=C(C(=O)O)C1c1cccc([N+](=O)[O-])c1 (stereo not drawn) [Bay M 5579] | – | IC50 [1, 5]: 1860 ± 300 nM |
| CCOC(=O)C1=C(C)NC2=C(C(=O)OC2)C1c1ccccc1OC(F)F (stereo not drawn) [CGP 28392] | 1250 ± 180 | – |
| CCOC(=O)C1=C(C)NC(C)=C(C(=O)OCCNC(=O)CCc2ccc(O)c([125I])c2)C1c1ccccc1C(F)(F)F (stereo not drawn) [^125 I-labelled 1,4-dihydropyridine] | – | Kd [2]: < 1 nM; stability (conclusion) [3]: sufficient stability; radiochemical impurities (stability) ([3]; 50 mM TRIS HCl pH 7.4, 25° C., 4 hours, muscle membrane in buffer, 25° C., storage in benzene or absolute ethanol at -20° C. up to 21 days): ≤ 10%; Kd ([4]; muscle membranes, read-out: dissociation constant (KD)): 0.35 nM; Kd ([4]; skeletal muscle membranes, read-out: dissociation constant (conclusion)): < 1 nM |
| COc1ccc([C@@H]2Sc3ccccc3N(CCN(C)C)C(=O)[C@@H]2OC(C)=O)cc1 [d-cis-Diltiazem] | – | EC50 [1]: 960 ± 310 nM |
| COc1ccc([C@H]2Sc3ccccc3N(CCN(C)C)C(=O)[C@H]2OC(C)=O)cc1 [l-cis-Diltiazem] | – | IC50 [1]: 3000 ± 1600 nM |
